From patent publication US20230131966A1, “FUNGICIDAL AMIDES” (FMC Corporation, priority 2020, published 2023)

Columns and labels:
Assay type in all cases: in vivo
[1] = test system: Puccinia recondita f. sp. tritici; experiment: Test B: wheat leaf rust control on wheat seedlings; conditions: for Test B disease control rating / pest or weed control at 250 ppm: 250 ppm, wheat seedlings, 100 = 100% disease control, 0 = no control; for Test B disease control rating (100 = 100% disease control, 0 = no disease control): rate 250 ppm, relative to the controls; for pest or weed control at 250 ppm: Puccinia recondita, read-out: Test B disease control rating
Phytophthora infestans = experiment: whole plant or invertebrate; conditions: tomato seedlings; for Test F disease control rating: 250 ppm; for Test F disease control rating / pest or weed control at 250 ppm: 100 = 100% disease control, 0 = no control; for Test F disease control rating (100 = 100% disease control, 0 = no disease control): rate 250 ppm, relative to the controls; for pest or weed control at 250 ppm: Phytophthora infestans, in Solanum lycopersicum, read-out: Test F disease control rating, 250 ppm
[2] = test system: Erysiphe graminis f. sp. tritici; experiment: Test G: wheat powdery mildew control on wheat seedlings; conditions: for Test G disease control rating / pest or weed control at 250 ppm: 250 ppm, 100 = 100% disease control, 0 = no control; for Test G disease control rating (100 = 100% disease control, 0 = no disease control): rate 250 ppm, relative to the controls; for pest or weed control at 250 ppm: Blumeria graminis, read-out: Test G disease control rating
Botrytis cinerea = experiment: Test E: tomato Botrytis control on tomato seedlings; conditions: for Test E disease control rating / pest or weed control at 250 ppm: 250 ppm, 100 = 100% disease control, 0 = no control; for Test E disease control rating (100 = 100% disease control, 0 = no disease control): rate 250 ppm, relative to the controls; for pest or weed control at 250 ppm: Botrytis cinerea, read-out: Test E disease control rating
Phakopsora pachyrhizi = experiment: Test A: Asian soybean rust control on soybean seedlings; conditions: for Test A disease control rating / pest or weed control at 250 ppm: 250 ppm, soybean seedlings, 100 = 100% disease control, 0 = no control; for Test A disease control rating (100 = 100% disease control, 0 = no disease control): rate 250 ppm, relative to the controls; for pest or weed control at 250 ppm: Phakopsora pachyrhizi, read-out: Test A disease control rating
Plasmopara viticola = experiment: Test D: grape downy mildew control on grape seedlings; conditions: for Test D disease control rating / pest or weed control at 250 ppm: 250 ppm, 100 = 100% disease control, 0 = no control; for Test D disease control rating (100 = 100% disease control, 0 = no disease control): rate 250 ppm, relative to the controls; for pest or weed control at 250 ppm: Plasmopara viticola, read-out: Test D disease control rating
Zymoseptoria tritici = experiment: Test C: wheat leaf blotch control on wheat seedlings; conditions: for Test C disease control rating / pest or weed control at 250 ppm: 250 ppm, wheat seedlings, 100 = 100% disease control, 0 = no control; for Test C disease control rating (100 = 100% disease control, 0 = no disease control): rate 250 ppm, relative to the controls; for pest or weed control at 250 ppm: Zymoseptoria tritici, read-out: Test C disease control rating

| SMILES | Test B disease control rating [1] | Test F disease control rating (Phytophthora infestans) | Test G disease control rating [2] | Test E disease control rating (Botrytis cinerea) | Test A disease control rating (Phakopsora pachyrhizi) | Test D disease control rating (Plasmopara viticola) | Test C disease control rating (Zymoseptoria tritici) | further results |
| --- | --- | --- | --- | --- | --- | --- | --- | --- |
| COc1ccnc(C(=O)NC(C)C(=O)OC(C#N)c2ccccc2)c1O (mixture of isomers) [Compound 159] | 0% | 0% | 0% | 0% | 0% | 11% | 0% | – |
| CC(NC(=O)c1cccc(NC=O)c1O)C(=O)OC(C)c1cccc(OC2CCC(C)(C)CC2)c1 (mixture of isomers) [Compound 160] | 92% | 80% | 0% | 0% | 100% | 98% | 92% | – |
| COc1ccnc(C(=O)NC(C)C(=O)OC(C)C2CCc3ccccc3O2)c1O (mixture of isomers) [Compound 164] | 99% | 0% | 0% | 0% | 100% | 0% | 99% | – |
| COc1ccnc(C(=O)NC(C)C(=O)OC(C)C2CCC(C)(C)CC2)c1OC(C)=O (mixture of isomers) [Compound 165] | 100% | 0% | 0% | 0% | 100% | 10% | 97% | – |
| COc1ccnc(C(=O)NC(C)C(=O)OC(C)c2ncc(C(F)(F)F)cc2Cl)c1O (mixture of isomers) [Compound 166] | 68% | 0% | 0% | 0% | 97% | 15% | 0% | – |
| COc1ccnc(C(=O)NC(C)C(=O)OC(C)C2CC(C)(C)CC(C)(C)C2)c1OC(C)=O (mixture of isomers) [Compound 171] | 100% | 53% | 0% | 0% | 100% | 49% | 80% | – |
| COc1ccnc(C(=O)NC(C)C(=O)OC(C)C2CCC(C)(C)CC2)c1O (mixture of isomers) [Compound 173] | 98% | 0% | 0% | 0% | 100% | 8% | 66% | – |
| COc1ccnc(C(=O)NC(C)C(=O)OC(C)C2CCC(C(C)(C)C)CC2)c1O (mixture of isomers) [Compound 176] | 89% | 0% | 0% | 0% | 99% | 14% | 57% | – |
| COc1ccnc(C(=O)NC(C)C(=O)OC(C)C2CCC(C(F)(F)F)CC2)c1OC(C)=O (mixture of isomers) [Compound 180] | 99% | 26% | 0% | 0% | 100% | 51% | 95% | – |
| COc1ccnc(C(=O)NC(C)C(=O)OC(C)C2CCC(C(C)(C)C)CC2)c1OC(C)=O (mixture of isomers) [Compound 181] | 100% | 26% | 0% | 0% | 100% | 80% | 100% | – |
| COc1ccnc(C(=O)NC(C)C(=O)OC(C)C2CCCc3ccccc32)c1OC(C)=O (mixture of isomers) [Compound 185] | 100% | 0% | 0% | 0% | 100% | 61% | 100% | – |
| COc1ccnc(C(=O)NC(C)C(=O)OC(C)C2Cc3ccccc3O2)c1OC(C)=O (mixture of isomers) [Compound 186] | 100% | 0% | 0% | 0% | 94% | 14% | 83% | – |
| COc1ccnc(C(=O)NC(C)C(=O)OC(C)C2Cc3ccccc3O2)c1O (mixture of isomers) [Compound 187] | – | – | – | – | – | – | – | Test B disease control rating (100 = 100% disease control, 0 = no disease control) [1]: 100%; Test F disease control rating (100 = 100% disease control, 0 = no disease control) (Phytophthora infestans): 0%; Test G disease control rating (100 = 100% disease control, 0 = no disease control) [2]: 0%; Test E disease control rating (100 = 100% disease control, 0 = no disease control) (Botrytis cinerea): 0%; Test A disease control rating (100 = 100% disease control, 0 = no disease control) (Phakopsora pachyrhizi): 97%; Test D disease control rating (100 = 100% disease control, 0 = no disease control) (Plasmopara viticola): 6%; Test C disease control rating (100 = 100% disease control, 0 = no disease control) (Zymoseptoria tritici): 96% |
| COc1ccnc(C(=O)NC(C)C(=O)OC(C)C2COc3ccccc32)c1OC(C)=O (mixture of isomers) [Compound 191] | – | – | – | – | – | – | – | Test B disease control rating (100 = 100% disease control, 0 = no disease control) [1]: 96%; Test F disease control rating (100 = 100% disease control, 0 = no disease control) (Phytophthora infestans): 0%; Test G disease control rating (100 = 100% disease control, 0 = no disease control) [2]: 21%; Test E disease control rating (100 = 100% disease control, 0 = no disease control) (Botrytis cinerea): 0%; Test A disease control rating (100 = 100% disease control, 0 = no disease control) (Phakopsora pachyrhizi): 100%; Test D disease control rating (100 = 100% disease control, 0 = no disease control) (Plasmopara viticola): 26%; Test C disease control rating (100 = 100% disease control, 0 = no disease control) (Zymoseptoria tritici): 89% |
| COc1ccnc(C(=O)N(C)C(C)C(=O)OC(C)c2ccc(C3CCCCC3)cc2)c1O (mixture of isomers) [Compound 193] | – | – | – | – | – | – | – | Test B disease control rating (100 = 100% disease control, 0 = no disease control) [1]: 74%; Test F disease control rating (100 = 100% disease control, 0 = no disease control) (Phytophthora infestans): 0%; Test G disease control rating (100 = 100% disease control, 0 = no disease control) [2]: 0%; Test E disease control rating (100 = 100% disease control, 0 = no disease control) (Botrytis cinerea): 0%; Test A disease control rating (100 = 100% disease control, 0 = no disease control) (Phakopsora pachyrhizi): 87%; Test D disease control rating (100 = 100% disease control, 0 = no disease control) (Plasmopara viticola): 74%; Test C disease control rating (100 = 100% disease control, 0 = no disease control) (Zymoseptoria tritici): 3% |
| CC(NC(=O)c1cccc(N)c1O)C(=O)OC(C)c1ccccc1Cc1ccccc1 (racemic) [Compound 9] | – | – | – | – | – | – | – | pest or weed control at 250 ppm [1]: 91%; pest or weed control at 250 ppm (Phytophthora infestans): 76%; pest or weed control at 250 ppm [2]: 0%; pest or weed control at 250 ppm (Botrytis cinerea): 0%; pest or weed control at 250 ppm (Phakopsora pachyrhizi): 95%; pest or weed control at 250 ppm (Plasmopara viticola): 97%; pest or weed control at 250 ppm (Zymoseptoria tritici): 53% |
| COc1ccnc(C(=O)NC(C)C(=O)OC(C)c2ccncc2)c1O (racemic) [Compound 14] | – | – | – | – | – | – | – | pest or weed control at 250 ppm [1]: 0%; pest or weed control at 250 ppm (Phytophthora infestans): 0%; pest or weed control at 250 ppm [2]: 0%; pest or weed control at 250 ppm (Botrytis cinerea): 0%; pest or weed control at 250 ppm (Phakopsora pachyrhizi): 0%; pest or weed control at 250 ppm (Plasmopara viticola): 48%; pest or weed control at 250 ppm (Zymoseptoria tritici): 12% |
